# Test results reported in ChEMBL document CHEMBL1250533, “QSAR-based solubility model for drug-like compounds” (Bioorg Med Chem, 2010).
# Assay: Intrinsic solubility of the compound in water
# Conditions: buffer
row,Compound,solubility
1,CC(=O)CC(c1ccccc1)c1c(O)c2ccccc2oc1=O (centres undefined) [WARFARIN],5.1 µg/mL
2,CN(C)CCCN1c2ccccc2Sc2ccc(Cl)cc21 [CHLORPROMAZINE],2.7 µg/mL
3,CNC(=C[N+](=O)[O-])NCCSCc1ccc(CN(C)C)o1 [RANITIDINE],990 µg/mL
4,CNCCC=C1c2ccccc2CCc2ccccc21 [NORTRIPTYLINE],25 µg/mL
5,Cc1ccc(Cl)c(Nc2ccccc2C(=O)O)c1Cl [MECLOFENAMIC ACID],0.16 µg/mL
6,O=C(O)C(O)c1ccccc1Cl (centres undefined),Soluble
7,Cc1cccc(CN2CCN(C(c3ccccc3)c3ccc(Cl)cc3)CC2)c1 (centres undefined) [MECLIZINE],0.13 µg/mL
8,CN(C)C(=O)C(CCN1CCC(O)(c2ccc(Cl)cc2)CC1)(c1ccccc1)c1ccccc1 [LOPERAMIDE],0.04 µg/mL
9,CC1CCc2cc(F)cc3c(=O)c(C(=O)O)cn1c23 (centres undefined) [FLUMEQUINE],48 µg/mL
10,CCN(CC)CCNC(=O)c1ccc(N)cc1 [PROCAINAMIDE],Soluble
11,COc1ccccc1OCCNCC(O)COc1cccc2[nH]c3ccccc3c12 (centres undefined) [CARVEDILOL],22.6 µg/mL
12,O=C(O)c1cc(/N=N/c2ccc(S(=O)(=O)Nc3ccccn3)cc2)ccc1O [SULFASALAZINE],0.29 µg/mL
13,NC(N)=Nc1nc(CSCCC(N)=NS(N)(=O)=O)cs1 [FAMOTIDINE],760 µg/mL
14,CN[C@H]1CC[C@@H](c2ccc(Cl)c(Cl)c2)c2ccccc21 [SERTRALINE],4.5 µg/mL
15,O=C1CN(/N=C/c2ccc([N+](=O)[O-])o2)C(=O)N1 [NITROFURANTOIN],137 µg/mL
16,C[C@@H]1CN(c2c(F)c(F)c3c(=O)c(C(=O)O)cn(C4CC4)c3c2F)C[C@H](C)N1 [ORBIFLOXACIN],Soluble
17,CNCCCC12CCC(c3ccccc31)c1ccccc12 [MAPROTILINE],5.6 µg/mL
18,CC(C(=O)O)c1cccc(Oc2ccccc2)c1 (centres undefined) [FENOPROFEN],48 µg/mL
19,CN1CCN(c2c(F)cc3c(=O)c(C(=O)O)cn4c3c2OCN4C)CC1 [MARBOFLOXACIN],Soluble
20,O=c1[nH]cc(F)c(=O)[nH]1 [FLUOROURACIL],Soluble
21,Cn1cnc([N+](=O)[O-])c1Sc1ncnc2nc[nH]c12 [AZATHIOPRINE],172 µg/mL
22,O=C(O)c1ccccc1C(=O)O [PHTHALIC ACID],4130 µg/mL
23,O=C(O)c1ccccc1O [SALICYLIC ACID],1620 µg/mL

# Same assay, conditions: water
row,Compound,solubility [µg/mL]
1,Oc1ccc(I)cc1,4250
2,Cc1ccc(C(=O)c2ccc(CC(=O)O)n2C)cc1 [TOLMETIN],21
3,Nc1ccc(/N=N/c2ccccc2)c(N)n1 [PHENAZOPYRIDINE],13.7
4,CC(C(=O)O)c1ccc(-c2ccccc2)c(F)c1 (centres undefined) [FLURBIPROFEN],17.2
5,CCN1CCN(c2cc3c(cc2F)c(=O)c(C(=O)O)cn3C2CC2)CC1 [ENROFLOXACIN],237
6,CNCCCN1c2ccccc2CCc2ccccc21 [DESIPRAMINE],63
7,CCN(CC)CCOC(=O)c1ccc(N)cc1 [PROCAINE],4500
8,NS(=O)(=O)c1cc2c(cc1Cl)N=C(CSCc1ccccc1)NS2(=O)=O [BENZTHIAZIDE],6.4
9,COc1ccc(Cc2nccc3cc(OC)c(OC)cc23)cc1OC [PAPAVERINE],46
10,CCCC(=O)Nc1ccc(OCC(O)CNC(C)C)c(C(C)=O)c1 (centres undefined) [ACEBUTOLOL],711
11,CN1CCN(c2cc3c(cc2F)c(=O)c(C(=O)O)cn3-c2ccc(F)cc2)CC1 [DIFLOXACIN],100
12,CC1=NS(=O)(=O)c2cc(Cl)ccc2N1 [DIAZOXIDE],100
13,NS(=O)(=O)c1cc2c(cc1C(F)(F)F)NCNS2(=O)=O [HYDROFLUMETHIAZIDE],360
14,CCn1cc(C(=O)O)c(=O)c2cc(F)c(N3CCNC(C)C3)c(F)c21 (centres undefined) [LOMEFLOXACIN],1630
15,CCc1nc(N)nc(N)c1-c1ccc(Cl)cc1 [PYRIMETHAMINE],19.4
16,CN(C)CCC=C1c2ccccc2CCc2ccccc21 [AMITRIPTYLINE],7.8
17,CCn1cc(C(=O)O)c(=O)c2cc(F)c(N3CCNCC3)cc21 [NORFLOXACIN],559
18,O=C1NC(=O)C(c2ccccc2)(c2ccccc2)N1 [PHENYTOIN],35
19,CCn1cc(C(=O)O)c(=O)c2ccc(C)nc21 [NALIDIXIC ACID],57
20,O=C(O)c1ccc(O)cc1 [PARABEN],4740
21,CC(=O)OCC1=C(C(=O)O)N2C(=O)[C@@H](NC(=O)Cc3cccs3)[C@H]2SC1 [CEPHALOTHIN],457
22,CCCCNC(=O)NS(=O)(=O)c1ccc(C)cc1 [TOLBUTAMIDE],93
23,Cc1nnc(NS(=O)(=O)c2ccc(N)cc2)s1 [SULFAMETHIZOLE],450
24,CCOC(=O)c1ccc(N)cc1 [BENZOCAINE],780
25,CN1CCN(C2=Nc3cc(Cl)ccc3Nc3ccccc32)CC1 [CLOZAPINE],189
26,CCCCNc1ccc(C(=O)OCCN(C)C)cc1 [TETRACAINE],258

row,Compound,solubility [µg/mL]
1,C=CCN1CC[C@]23c4c5ccc(O)c4O[C@H]2C(=O)CC[C@@]3(O)[C@H]1C5 [NALOXONE],414
2,Nc1nc2nc[nH]c2c(=O)[nH]1 [GUANINE],5.6
3,C[C@@H]1CN(c2c(F)c(N)c3c(=O)c(C(=O)O)cn(C4CC4)c3c2F)C[C@H](C)N1 [SPARFLOXACIN],167
4,O=C(O)c1cn(-c2ccc(F)cc2)c2cc(N3CCNCC3)c(F)cc2c1=O [SARAFLOXACIN],280
5,Clc1ccc(COC(Cn2ccnc2)c2ccc(Cl)cc2Cl)c(Cl)c1 (centres undefined) [MICONAZOLE],3.5
6,CN(C)CCCN1c2ccccc2CCc2ccccc21 [IMIPRAMINE],22
7,Cc1cccc(Nc2ccccc2C(=O)O)c1C [MEFENAMIC ACID],0.04
8,CC(C(=O)O)c1ccc2c(c1)[nH]c1ccc(Cl)cc12 (centres undefined) [CARPROFEN],5.5
9,CCCNC(=O)NS(=O)(=O)c1ccc(Cl)cc1 [CHLORPROPAMIDE],156
10,C#CCN(C)[C@H](C)Cc1ccccc1 [SELEGILINE],575
11,CN1C(C(=O)Nc2ccccn2)=C(O)c2ccccc2S1(=O)=O [PIROXICAM],5.2
12,Nc1ccc(Br)cc1C(=O)O,182
13,NC12CC3CC(CC(C3)C1)C2 [AMANTADINE],2120
14,CC(C)NCC(O)COc1cccc2[nH]ccc12 (centres undefined) [PINDOLOL],40
15,O=C(O)c1cc(Br)c(O)cc1O,559
16,C=CCc1ccccc1OCC(O)CNC(C)C (centres undefined) [ALPRENOLOL],580
17,OCCN(CCO)c1nc(N2CCCCC2)c2nc(N(CCO)CCO)nc(N3CCCCC3)c2n1 [DIPYRIDAMOLE],3.46
18,CC(CN(C)C)CN1c2ccccc2CCc2ccccc21 (centres undefined) [TRIMIPRAMINE],4.8
19,c1ccc2[nH]c(-c3cscn3)nc2c1 [THIABENDAZOLE],66
20,O=C(O)c1cc(-c2ccc(F)cc2F)ccc1O [DIFLUNISAL],0.29
21,c1ccc(Cn2ccnc2)cc1 [BENZYLIMIDAZOLE],874
22,CCCN(CCC)S(=O)(=O)c1ccc(C(=O)O)cc1 [PROBENECID],3.9
23,CCCCOc1cc(C(=O)NCCN(CC)CC)c2ccccc2n1 [DIBUCAINE],14
24,NCCc1c[nH]c2ccccc12 [TRYPTAMINE],80
25,O=c1n(CCCN2CCN(c3cccc(Cl)c3)CC2)nc2ccccn12 [TRAZODONE],127
